Results as given in ChEMBL document CHEMBL1201862, “PubChem BioAssay data set” (2004).
The source made the active and inactive calls.

Experiments:
[1] = NIH3T3 cell viability loss – ATP luminescence, mouse fibroblasts, counter-screen, dose response (AID 2010); assay type: functional, cell-based;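 further: cells exposed to compound for about 90 hours before reading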
[2] = Luminescence Cell-Based Dose Retest to Confirm Inhibitors of Cancer Stem Cells. [Related pubchem assays (depositor defined):AID2717, AID2721]; assay type: functional; conditions: Homo sapiens
[3] = Trypanosoma cruzi growth suppression in host cells – NIH3T3 host cells, beta-gal luminescence, confirmation (AID 2044); assay type: functional, cell-based;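 further: intracellular parasites grown in NIH/3T3 mouse fibroblasts as host cells; luminescent beta-galactosidase reporter signal from transgenic T. cruzi replicating inside host cells; inhibitors lower the luminescence signal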
[4] = target: DNA repair protein RAD52 homolog (Homo sapiens, UniProt P43351); assay type: functional, biochemical
[5] = HGIII-sPLA2 enzyme inhibition potency – biochemical, QFRET, IC50, dose response (AID 743457);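 further: green fluorescence rise as the enzyme cleaves BODIPY PC-A2 in liposomes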
[6] = nonselective StAR promoter luciferase inhibitors – cell-based, luminescence, luciferase reporter, counter-screen for LRH-1 inverse agonist project, dose response (AID 651969); assay type: functional
[7] = target: Steroidogenic factor 1 (Homo sapiens, UniProt Q13285); test: Counterscreen for inverse agonists of the liver receptor homolog-1 (LRH-1; NR5A2): Luminescence-based cell-based high throughput dose response assay to identify inverse agonists of the Steroidogenic Factor 1 Nuclear Receptor (SF1; NR5A1).; assay type: functional
[8] = target: Nuclear receptor subfamily 5 group A member 2 (Homo sapiens, UniProt O00482); assay type: functional, cell-based;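 further: HEK293T cells transfected with LRH-1 and a StAR promoter luciferase reporter; potency for inhibitors that lower LRH-1 driven reporter light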
[9] = target: Melanocortin receptor 4 (Homo sapiens, UniProt P32245); assay type: functional, cell-based;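 further: Cell-based assay with luminescence read-out, confirmatory dose-response testing for agonist activity of biased ligands at MC4R; human U2OS cells with tagged receptor and beta-arrestin; potency of agonists that increase receptor coupling to beta-arrestin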
[10] = target: T1, Beta-galactosidase (Escherichia coli, UniProt Q8VNN2); test: Dose response counterscreen for EBI2 assay utilizing the enzyme, b-galactosidase.; assay type: functional
[11] = target: Botulinum neurotoxin type F (Clostridium botulinum, UniProt P30996); test: High-throughput multiplex microsphere dose response for inhibitors of toxin protease, specifically Botulinum neurotoxin light chain F protease, compounds from Cherry Pick 02.; assay type: functional; conditions: read-out: EC50_MICROM
[12] = cells; assay type: functional, cell-based
[13] = target: T2, Trace amine-associated receptor 1 (Homo sapiens, UniProt Q96RJ0); test: Fluorescence-based cell-based high throughput dose response assay to identify agonists of the human trace amine associated receptor 1 (TAAR1).; assay type: functional
T2 sequence (Q96RJ0 whole entry): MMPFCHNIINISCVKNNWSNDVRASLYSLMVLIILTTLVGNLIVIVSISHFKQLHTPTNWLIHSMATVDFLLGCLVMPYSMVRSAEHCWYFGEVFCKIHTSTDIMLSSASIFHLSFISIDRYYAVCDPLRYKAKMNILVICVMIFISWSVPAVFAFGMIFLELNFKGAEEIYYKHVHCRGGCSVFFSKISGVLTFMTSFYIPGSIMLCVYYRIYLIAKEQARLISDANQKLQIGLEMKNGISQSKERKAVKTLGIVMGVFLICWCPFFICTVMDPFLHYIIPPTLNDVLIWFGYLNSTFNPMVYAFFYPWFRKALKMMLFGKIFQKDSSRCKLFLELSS

[14] = cells; assay type: functional, cell-based; remark: listed apart in the source
[15] = target: T2, Trace amine-associated receptor 1; test: Counterscreen for agonists of the human trace amine associated receptor 1 (hTAAR1): Fluorescence-based cell-based high throughput dose response assay to identify hTAAR1 agonist that also desensitize TAAR1 receptor response.; assay type: functional
[16] = cells; assay type: functional, cell-based; remark: listed apart in the source
[17] = target: Nuclear receptor subfamily 0 group B member 1 (Homo sapiens, UniProt P51843); assay type: functional, cell-based;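 further: HEK293T cells transfected with SF-1 and DAX-1 plus StAR promoter luciferase reporter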
[18] = target: Fructose-bisphosphate aldolase (Mycobacterium tuberculosis, UniProt P9WQA3); test: Fluorescence-based biochemical high throughput dose response assay for inhibitors of the fructose-bisphosphate aldolase (FBA) of M. tuberculosis.; assay type: functional
[19] = target: T3, Delta-type opioid receptor (Homo sapiens, UniProt P41143); test: HTS Image-Based Screen for Antagonists of the DOR Receptor. [Related pubchem assays (depositor defined):AID1777, AID1785, AID1786, AID2133]; assay type: functional
[20] = target: T4, Kappa-type opioid receptor (Homo sapiens, UniProt P41145); assay type: functional
[21] = target: T3, Delta-type opioid receptor; test: HTS Image-Based Screen for Agonists of the DOR Receptor. [Related pubchem assays (depositor defined):AID1777, AID1786, AID2133]; assay type: functional
[22] = target: T4, Kappa-type opioid receptor; assay type: functional; remark: listed apart in the source
[23] = target: T1, Beta-galactosidase; assay type: functional
[24] = target: Mu-type opioid receptor (Homo sapiens, UniProt P35372); test: HTS Image-Based Screen for Agonists of the MOR Receptor. [Related pubchem assays (depositor defined):AID1777, AID1785, AID1786, AID2133]; assay type: functional;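 further: imaging of beta-arrestin GFP recruitment into spots after receptor activation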
[25] = Counterscreen for activators of the function of SWI/SNF related, matrix associated, actin dependent regulator of chromatin, subfamily a, member 2 (SMARCA2, BRM): Luminescence-based cell-based high throughput dose response assay to identify non-selective compounds using the VP16 reporter assay.; assay type: functional
[26] = target: SWI/SNF-related matrix-associated actin-dependent regulator of chromatin subfamily A member 2 (Homo sapiens, UniProt P51531); test: Luminescence-based cell-based high throughput dose response assay to identify activators of the function of SWI/SNF related, matrix associated, actin dependent regulator of chromatin, subfamily a, member 2 (SMARCA2, BRM).; assay type: functional
[27] = potency of ADAM10 substrate cleavage blockers – biochemical, QFRET, dose response (AID 743254);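 further: ADAM10 enzyme with the DM2 quenched FRET peptide as substrate; EDANS fluorescence gain as the protease cuts the substrate; inhibitor potency against ADAM10 proteolytic activity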
[28] = target: Disintegrin and metalloproteinase domain-containing protein 17 (Homo sapiens, UniProt P78536); test: inhibition of ADAM17 substrate cleavage – biochemical, quenched FRET substrate, counter-screen for ADAM10 exosite inhibitor project, dose response (AID 743253)

T1 sequence (Q8VNN2 whole entry): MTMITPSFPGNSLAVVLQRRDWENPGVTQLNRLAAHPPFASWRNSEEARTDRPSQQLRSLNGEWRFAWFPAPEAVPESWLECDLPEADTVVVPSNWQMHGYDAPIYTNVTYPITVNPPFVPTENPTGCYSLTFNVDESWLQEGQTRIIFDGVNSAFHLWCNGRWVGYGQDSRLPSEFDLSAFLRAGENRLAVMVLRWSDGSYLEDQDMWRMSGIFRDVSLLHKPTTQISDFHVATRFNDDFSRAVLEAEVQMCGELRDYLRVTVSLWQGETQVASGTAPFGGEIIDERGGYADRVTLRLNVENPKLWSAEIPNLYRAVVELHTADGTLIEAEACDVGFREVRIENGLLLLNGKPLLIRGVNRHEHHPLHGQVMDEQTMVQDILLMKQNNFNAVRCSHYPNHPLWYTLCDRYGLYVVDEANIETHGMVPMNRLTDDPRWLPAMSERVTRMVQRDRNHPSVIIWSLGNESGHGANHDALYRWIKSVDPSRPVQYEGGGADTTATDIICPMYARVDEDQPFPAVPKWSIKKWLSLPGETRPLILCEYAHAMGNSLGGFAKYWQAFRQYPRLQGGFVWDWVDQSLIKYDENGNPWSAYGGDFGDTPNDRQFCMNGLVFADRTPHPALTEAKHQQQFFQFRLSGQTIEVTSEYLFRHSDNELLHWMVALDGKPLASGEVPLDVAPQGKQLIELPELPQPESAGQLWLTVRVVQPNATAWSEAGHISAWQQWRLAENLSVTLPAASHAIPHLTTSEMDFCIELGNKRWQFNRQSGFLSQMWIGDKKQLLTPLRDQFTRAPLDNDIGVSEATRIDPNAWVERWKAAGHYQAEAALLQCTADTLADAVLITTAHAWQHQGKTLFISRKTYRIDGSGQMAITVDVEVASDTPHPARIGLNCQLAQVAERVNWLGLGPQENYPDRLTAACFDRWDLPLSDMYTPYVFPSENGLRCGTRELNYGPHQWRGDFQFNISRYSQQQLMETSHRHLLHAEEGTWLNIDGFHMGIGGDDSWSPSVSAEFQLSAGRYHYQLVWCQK
T3 sequence (P41143 whole entry): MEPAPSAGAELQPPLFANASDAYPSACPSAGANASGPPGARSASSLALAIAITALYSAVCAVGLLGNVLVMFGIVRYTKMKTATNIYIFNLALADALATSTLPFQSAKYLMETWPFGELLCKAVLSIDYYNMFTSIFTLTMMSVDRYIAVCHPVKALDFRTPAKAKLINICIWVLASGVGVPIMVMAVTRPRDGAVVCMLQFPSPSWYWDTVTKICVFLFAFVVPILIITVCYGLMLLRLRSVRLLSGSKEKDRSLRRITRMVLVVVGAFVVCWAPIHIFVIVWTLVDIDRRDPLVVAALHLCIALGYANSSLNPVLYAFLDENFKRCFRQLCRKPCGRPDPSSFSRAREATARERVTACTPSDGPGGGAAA
T4 sequence (P41145 whole entry): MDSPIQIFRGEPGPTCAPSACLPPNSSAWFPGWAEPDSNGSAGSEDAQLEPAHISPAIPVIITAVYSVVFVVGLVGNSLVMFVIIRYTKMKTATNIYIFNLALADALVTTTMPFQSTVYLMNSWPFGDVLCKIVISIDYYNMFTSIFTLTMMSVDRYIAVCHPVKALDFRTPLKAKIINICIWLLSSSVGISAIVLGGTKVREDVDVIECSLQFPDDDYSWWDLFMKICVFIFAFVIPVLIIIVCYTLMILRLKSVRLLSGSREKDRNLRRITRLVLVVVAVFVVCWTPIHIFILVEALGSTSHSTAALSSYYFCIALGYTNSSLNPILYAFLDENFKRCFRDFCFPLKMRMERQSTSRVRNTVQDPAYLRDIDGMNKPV
Chain of Melanocortin receptor 4 (P32245 whole entry): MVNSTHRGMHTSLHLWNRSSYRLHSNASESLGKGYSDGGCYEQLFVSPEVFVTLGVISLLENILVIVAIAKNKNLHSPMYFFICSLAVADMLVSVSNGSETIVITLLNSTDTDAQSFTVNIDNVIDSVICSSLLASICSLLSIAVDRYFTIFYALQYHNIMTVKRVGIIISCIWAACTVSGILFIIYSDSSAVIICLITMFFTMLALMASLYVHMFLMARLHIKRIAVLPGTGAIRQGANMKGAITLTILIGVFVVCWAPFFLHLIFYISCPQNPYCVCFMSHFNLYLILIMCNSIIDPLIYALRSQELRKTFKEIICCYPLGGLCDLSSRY
Chain of DNA repair protein RAD52 homolog (P43351 whole entry): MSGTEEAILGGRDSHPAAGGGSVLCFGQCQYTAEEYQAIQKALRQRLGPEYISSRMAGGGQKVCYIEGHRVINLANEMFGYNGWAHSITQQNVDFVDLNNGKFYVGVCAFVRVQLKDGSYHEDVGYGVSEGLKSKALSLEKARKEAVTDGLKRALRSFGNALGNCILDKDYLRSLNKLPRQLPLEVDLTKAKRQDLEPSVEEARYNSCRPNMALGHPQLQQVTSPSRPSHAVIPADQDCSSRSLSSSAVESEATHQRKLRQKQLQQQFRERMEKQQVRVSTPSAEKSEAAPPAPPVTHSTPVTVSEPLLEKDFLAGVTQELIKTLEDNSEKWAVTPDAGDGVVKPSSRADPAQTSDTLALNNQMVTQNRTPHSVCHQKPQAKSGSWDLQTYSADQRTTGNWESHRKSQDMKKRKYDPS
Chain of Botulinum neurotoxin type F (P30996 1-436 limits assumed): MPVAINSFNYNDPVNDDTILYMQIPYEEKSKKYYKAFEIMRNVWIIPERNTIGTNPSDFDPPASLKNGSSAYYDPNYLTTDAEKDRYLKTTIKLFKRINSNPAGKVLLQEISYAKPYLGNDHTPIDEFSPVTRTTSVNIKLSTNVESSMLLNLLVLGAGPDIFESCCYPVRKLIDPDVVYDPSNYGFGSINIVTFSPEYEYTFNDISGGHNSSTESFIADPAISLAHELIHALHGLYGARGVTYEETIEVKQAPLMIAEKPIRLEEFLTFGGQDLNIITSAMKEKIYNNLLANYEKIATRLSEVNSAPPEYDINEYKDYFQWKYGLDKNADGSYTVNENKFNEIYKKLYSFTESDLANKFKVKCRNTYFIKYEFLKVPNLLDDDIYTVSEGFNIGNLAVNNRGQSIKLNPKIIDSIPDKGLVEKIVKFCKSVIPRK
Chain of Fructose-bisphosphate aldolase (P9WQA3 whole entry): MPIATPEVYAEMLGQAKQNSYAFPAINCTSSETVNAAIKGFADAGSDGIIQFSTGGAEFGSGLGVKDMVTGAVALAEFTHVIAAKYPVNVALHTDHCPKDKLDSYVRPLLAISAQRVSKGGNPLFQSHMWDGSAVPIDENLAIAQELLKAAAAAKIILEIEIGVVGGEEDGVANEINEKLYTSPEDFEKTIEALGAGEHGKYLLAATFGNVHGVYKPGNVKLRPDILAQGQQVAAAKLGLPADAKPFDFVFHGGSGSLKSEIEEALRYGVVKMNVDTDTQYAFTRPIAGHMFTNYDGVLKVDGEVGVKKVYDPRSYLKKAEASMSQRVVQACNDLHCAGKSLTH
Chain of Nuclear receptor subfamily 0 group B member 1 (P51843 whole entry): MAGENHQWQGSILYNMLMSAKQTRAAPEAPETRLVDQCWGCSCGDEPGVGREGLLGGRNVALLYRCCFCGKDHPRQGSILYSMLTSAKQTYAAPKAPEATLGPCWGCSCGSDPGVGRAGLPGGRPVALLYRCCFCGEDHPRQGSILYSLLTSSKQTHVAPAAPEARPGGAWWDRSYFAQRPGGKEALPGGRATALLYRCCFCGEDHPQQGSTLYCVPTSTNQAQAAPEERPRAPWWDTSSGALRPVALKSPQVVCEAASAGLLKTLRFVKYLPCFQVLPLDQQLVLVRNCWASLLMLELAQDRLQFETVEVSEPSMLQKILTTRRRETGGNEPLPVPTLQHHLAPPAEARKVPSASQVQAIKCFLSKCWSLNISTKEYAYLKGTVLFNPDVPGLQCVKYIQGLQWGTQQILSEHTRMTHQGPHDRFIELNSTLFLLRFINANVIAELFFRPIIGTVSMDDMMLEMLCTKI
Chain of Steroidogenic factor 1 (Q13285 whole entry): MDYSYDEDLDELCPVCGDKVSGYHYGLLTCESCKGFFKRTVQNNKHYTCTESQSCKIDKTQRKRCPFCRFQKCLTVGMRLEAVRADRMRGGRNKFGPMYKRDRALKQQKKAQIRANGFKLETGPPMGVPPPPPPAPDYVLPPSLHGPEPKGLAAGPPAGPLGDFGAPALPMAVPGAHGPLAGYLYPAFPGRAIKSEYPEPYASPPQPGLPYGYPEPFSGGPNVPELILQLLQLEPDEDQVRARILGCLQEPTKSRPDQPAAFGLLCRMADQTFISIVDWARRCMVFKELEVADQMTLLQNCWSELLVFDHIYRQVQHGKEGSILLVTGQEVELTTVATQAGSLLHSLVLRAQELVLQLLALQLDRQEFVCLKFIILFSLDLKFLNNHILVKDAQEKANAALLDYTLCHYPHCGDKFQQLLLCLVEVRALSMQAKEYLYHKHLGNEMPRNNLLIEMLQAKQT
Chain of Nuclear receptor subfamily 5 group A member 2 (O00482 whole entry): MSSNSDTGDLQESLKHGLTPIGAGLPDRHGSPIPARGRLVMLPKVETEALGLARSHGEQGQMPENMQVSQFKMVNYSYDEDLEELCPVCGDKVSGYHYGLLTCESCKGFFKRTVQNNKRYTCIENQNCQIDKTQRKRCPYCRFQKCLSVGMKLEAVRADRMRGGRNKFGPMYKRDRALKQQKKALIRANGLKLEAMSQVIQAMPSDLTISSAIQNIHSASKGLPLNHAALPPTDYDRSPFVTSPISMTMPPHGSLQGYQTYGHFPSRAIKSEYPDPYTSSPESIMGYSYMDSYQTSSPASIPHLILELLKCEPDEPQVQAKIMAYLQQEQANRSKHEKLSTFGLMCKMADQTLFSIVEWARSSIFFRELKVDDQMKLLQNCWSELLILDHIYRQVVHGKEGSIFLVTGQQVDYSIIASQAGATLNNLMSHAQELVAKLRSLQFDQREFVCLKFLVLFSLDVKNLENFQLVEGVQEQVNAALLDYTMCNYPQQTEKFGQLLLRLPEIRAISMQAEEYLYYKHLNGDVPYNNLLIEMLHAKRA

Cc1cc(N2CCN(C)CC2)nc2ccc(NC(S)=NCCC(C)C)cc12
EC50 [1]: 8.05 µM (active)
AC50 [2]: 1.24 µM (active)
EC50 [3]: 0.746 µM (active)
AC50 [4]: 28.2 µM (active)

Nc1cc(N)c2c(c1)C(=O)c1ccccc1-2
IC50 [5]: > 122 µM (inactive)

CCCc1cc(=O)oc2cc(OCC(=O)NCCc3ccc(S(N)(=O)=O)cc3)ccc12
IC50 [6]: 35.9 µM (inactive)
IC50 [7]: 7.47 µM (active)
IC50 [8]: 35.9 µM (inactive)

CC(=O)Nc1cc(-c2ccc(N(C)C)cc2)cn2c(-c3ccc(F)cc3)cnc12
EC50 [9]: > 9.91 µM (active)
IC50 [10]: > 80 µM (inactive)

COc1ccccc1C(CNC(=O)c1ccc(C)c(S(=O)(=O)N2CCCCC2)c1)N1CCCC1 (centres undefined)
EC50 [11]: > 20 µM (inactive)

COC(=O)[C@]12CCCCC=C1N(Cc1ccccc1)C(=O)[C@H](CC(=O)NCCc1ccccc1OC)C2
IC50 [12]: 27.7 µM (inactive)
EC50 [13]: 2.49 µM (active)
EC50 [14]: > 29.9 µM (inactive)
IC50 [15]: 4.83 µM (active)

CCOc1ccc(NC(=O)c2ccc3c(c2)N(C)CCS3)cc1
IC50 [16]: > 67.6 µM (inactive)
IC50 [17]: > 67.6 µM (inactive)

C(=C\c1ccc2nncn2c1)/c1ccccc1
IC50 [18]: 1.45 µM (active)

COc1ccc(-c2cc(=O)n(-c3nc4ccccc4[nH]3)[nH]2)cc1
IC50 [19]: > 32 µM (inactive)
IC50 [20]: 9.08 µM (active)
EC50 [21]: > 32 µM (inactive)
IC50 [22]: > 32 µM
EC50 [23]: > 31.5 µM (inactive)
EC50 [24]: > 32 µM (inactive)
EC50 [25]: > 91.2 µM (inactive)
EC50 [26]: > 91.2 µM (inactive)

CCN(CC)c1ccc(NC(=O)CSc2nc3ccccc3c(=O)n2-c2ccc(C)cc2)cc1
IC50 [5]: 60.3 µM (inactive)
IC50 [27]: > 69.5 µM (inactive)
IC50 [28]: > 69.5 µM (inactive)
